Measurements taken from ChEMBL document CHEMBL3885861, “Open TG-GATES”.

Species on record: Rattus norvegicus
Test: Open TG-GATES - Regimen: Single
Assay type: toxicity, organism-based, Sprague-Dawley
Set-up: regimen Single, gender Male, age 6 weeks
Conditions: in vivo, po, 0 mg/kg, route gavage, dose level Control; for APTT / Bas / Eos / Fbg / Hb / Ht / Lym / MCH / MCHC / MCV / Mono / Neu / PT / Plat / RBC / Ret / WBC: tissue Blood; for KIDNEY_L / KIDNEY_R / KIDNEY_TOTAL: tissue Kidney; for LIVER: tissue Liver; for A/G / ALP / ALT / AST / BUN / CRE / Ca / Cl / DBIL / GLC / IP / K / LDH / Na / PL / RALB / TBIL / TC / TG / TP / gamma-GTP: tissue Plasma

## CCSCC[C@H](N)C(=O)O [ETHIONINE]
3 h
  TERMINAL_BW: 218.5 g
  APTT: 19 s
  Bas: 0%
  Eos: 1%
  Fbg: 216.6 mg/dL
  Hb: 13.4 g/dL
  Ht: 39.8%
  Lym: 79.6%
  MCH: 21.1 pg
  MCHC: 33.5%
  MCV: 62.9 fL
  Mono: 3%
  Neu: 16.4%
  PT: 12.5 s
  Plat: 122 x10_4/uL
  RBC: 632.8 x10_4/ul
  Ret: 7.4%
  WBC: 83.3 x10_2/uL
  KIDNEY_L: 1 g
  KIDNEY_R: 1 g
  KIDNEY_TOTAL: 1.9 g
  LIVER: 10.3 g
  A/G: 1.6
  ALP: 974.2 IU/L
  ALT: 35.6 IU/L
  AST: 64.4 IU/L
  BUN: 11.6 mg/dL
  CRE: 0.4 mg/dL
  Ca: 10.6 mg/dL
  Cl: 100.6 meq/L
  DBIL: 0.066 mg/dL
  GLC: 196.6 mg/dL
  IP: 9.3 mg/dL
  K: 3.9 meq/L
  LDH: 172.8 IU/L
  Na: 140.2 meq/L
  PL: 136.8 mg/dL
  RALB: 3.3 g/dL
  TBIL: 0.1 mg/dL
  TC: 70.6 mg/dL
  TG: 80.8 mg/dL
  TP: 5.4 g/dL
  gamma-GTP: 1 IU/L
6 h
  TERMINAL_BW: 211.6 g
  APTT: 18.9 s
  Bas: 0%
  Eos: 1%
  Fbg: 229 mg/dL
  Hb: 13.6 g/dL
  Ht: 40%
  Lym: 81.8%
  MCH: 21.3 pg
  MCHC: 34.1%
  MCV: 62.5 fL
  Mono: 2.8%
  Neu: 13.2%
  PT: 12.8 s
  Plat: 111.7 x10_4/uL
  RBC: 640.6 x10_4/ul
  Ret: 6.9%
  WBC: 79.1 x10_2/uL
  KIDNEY_L: 1 g
  KIDNEY_R: 0.9 g
  KIDNEY_TOTAL: 1.9 g
  LIVER: 9 g
  A/G: 1.5
  ALP: 1036.8 IU/L
  ALT: 38.6 IU/L
  AST: 70.6 IU/L
  BUN: 10.6 mg/dL
  CRE: 0.4 mg/dL
  Ca: 10.4 mg/dL
  Cl: 102.4 meq/L
  DBIL: 0.076 mg/dL
  GLC: 196 mg/dL
  IP: 9.5 mg/dL
  K: 3.7 meq/L
  LDH: 189 IU/L
  Na: 140.6 meq/L
  PL: 145 mg/dL
  RALB: 3.3 g/dL
  TBIL: 0.1 mg/dL
  TC: 78 mg/dL
  TG: 88.6 mg/dL
  TP: 5.5 g/dL
  gamma-GTP: 1 IU/L
9 h
  TERMINAL_BW: 213.3 g
  APTT: 19 s
  Bas: 0%
  Eos: 1%
  Fbg: 224.8 mg/dL
  Hb: 13 g/dL
  Ht: 38.3%
  Lym: 76.8%
  MCH: 21.2 pg
  MCHC: 34%
  MCV: 62.4 fL
  Mono: 2.4%
  Neu: 19.2%
  PT: 13 s
  Plat: 123.8 x10_4/uL
  RBC: 615 x10_4/ul
  Ret: 6.9%
  WBC: 90.6 x10_2/uL
  KIDNEY_L: 1 g
  KIDNEY_R: 1 g
  KIDNEY_TOTAL: 1.9 g
  LIVER: 9.1 g
  A/G: 1.5
  ALP: 936 IU/L
  ALT: 31.2 IU/L
  AST: 63 IU/L
  BUN: 10 mg/dL
  CRE: 0.4 mg/dL
  Ca: 10.4 mg/dL
  Cl: 102.6 meq/L
  DBIL: 0.062 mg/dL
  GLC: 203.4 mg/dL
  IP: 9.4 mg/dL
  K: 3.6 meq/L
  LDH: 187.2 IU/L
  Na: 141.2 meq/L
  PL: 140 mg/dL
  RALB: 3.3 g/dL
  TBIL: 0.1 mg/dL
  TC: 79.6 mg/dL
  TG: 53.6 mg/dL
  TP: 5.5 g/dL
  gamma-GTP: 1 IU/L
24 h
  TERMINAL_BW: 228.7 g
  APTT: 20.7 s
  Bas: 0%
  Eos: 1%
  Fbg: 226 mg/dL
  Hb: 14 g/dL
  Ht: 41.5%
  Lym: 80.6%
  MCH: 21.8 pg
  MCHC: 33.8%
  MCV: 64.4 fL
  Mono: 2.6%
  Neu: 14.8%
  PT: 12.1 s
  Plat: 126 x10_4/uL
  RBC: 644.2 x10_4/ul
  Ret: 6.6%
  WBC: 105.3 x10_2/uL
  KIDNEY_L: 1 g
  KIDNEY_R: 1 g
  KIDNEY_TOTAL: 2 g
  LIVER: 11.1 g
  A/G: 1.5
  ALP: 936 IU/L
  ALT: 41 IU/L
  AST: 66.8 IU/L
  BUN: 14.4 mg/dL
  CRE: 0.4 mg/dL
  Ca: 10.7 mg/dL
  Cl: 102 meq/L
  DBIL: 0.096 mg/dL
  GLC: 211.6 mg/dL
  IP: 8.1 mg/dL
  K: 3.8 meq/L
  LDH: 183.8 IU/L
  Na: 140.2 meq/L
  PL: 156.6 mg/dL
  RALB: 3.4 g/dL
  TBIL: 0.1 mg/dL
  TC: 81 mg/dL
  TG: 99.2 mg/dL
  TP: 5.7 g/dL
  gamma-GTP: 1.2 IU/L
